Assay [1] is described as follows: NIH3T3 cell viability loss – ATP luminescence, mouse fibroblasts, counter-screen, dose response (AID 2010).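 Note: cells exposed to compound for about 90 hours before reading.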 It counts as functional, cell-based. Background: The purpose of a counterscreen is to sort out artefacts and off-target activity.
For the next assay, the target named is T1, Streptokinase A (Streptococcus pyogenes serotype M1, UniProt P10520).
T1 sequence (P10520 whole entry): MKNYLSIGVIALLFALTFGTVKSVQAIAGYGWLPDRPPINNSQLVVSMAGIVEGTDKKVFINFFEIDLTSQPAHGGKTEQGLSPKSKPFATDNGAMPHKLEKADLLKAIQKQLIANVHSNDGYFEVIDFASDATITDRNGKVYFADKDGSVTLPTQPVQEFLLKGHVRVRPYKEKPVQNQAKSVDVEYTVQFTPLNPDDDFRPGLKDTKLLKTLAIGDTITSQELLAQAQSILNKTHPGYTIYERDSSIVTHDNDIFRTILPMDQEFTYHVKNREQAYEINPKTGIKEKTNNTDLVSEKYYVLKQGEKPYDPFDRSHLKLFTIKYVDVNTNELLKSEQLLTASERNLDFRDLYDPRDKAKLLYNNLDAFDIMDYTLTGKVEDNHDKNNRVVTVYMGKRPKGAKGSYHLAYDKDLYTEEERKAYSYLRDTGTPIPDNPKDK
Put plainly: viability-normalized secreted streptokinase activity reduction – plasminogen activation absorbance, OD405, dose response (AID 1914).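 Note: secreted streptokinase activity via plasminogen activation per viability signal from cell pellet.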 The class given is functional, Streptococcus pyogenes M1 GAS.

The test system of assay [2] is Streptococcus sp. 'group A'. Kind of assay: Streptococcus pyogenes SK(-)GAS viability under kanamycin – luminescence, BacTiterGlo, confirmation, counter-screen for streptokinase expression inhibitor project, dose response (AID 1900). The class given is functional, organism-based.
The nature of assay [3]: Trypanosoma cruzi growth suppression in host cells – NIH3T3 host cells, beta-gal luminescence, confirmation (AID 2044).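 Note: intracellular parasites grown in NIH/3T3 mouse fibroblasts as host cells; luminescent beta-galactosidase reporter signal from transgenic T. cruzi replicating inside host cells; inhibitors lower the luminescence signal.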 The class given is functional, cell-based.
The subject of the next assay is Streptococcus. Kind of assay: GAS UMAA2166 growth inhibition – luminescence, BacTiterGlo, counter-screen for streptokinase expression inhibitor project, dose response (AID 1915).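 Note: potency for reduction of bacterial viability or growth.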 It counts as functional, organism-based.
Assay [4] can be described thus: Luminescence Cell-Based Dose Confirmation HTS to Identify Inhibitors of Platelet Dense Granule Release. [Related pubchem assays: 1663 (Primary HTS), 1678 (Summary of Project)]. The class given is functional.
Assay [5] addresses T2, Corticotropin-releasing factor receptor 2/Corticotropin-releasing factor-binding protein (Homo sapiens, UniProt P24387+Q13324).
T2 sequence (Q13324 whole entry): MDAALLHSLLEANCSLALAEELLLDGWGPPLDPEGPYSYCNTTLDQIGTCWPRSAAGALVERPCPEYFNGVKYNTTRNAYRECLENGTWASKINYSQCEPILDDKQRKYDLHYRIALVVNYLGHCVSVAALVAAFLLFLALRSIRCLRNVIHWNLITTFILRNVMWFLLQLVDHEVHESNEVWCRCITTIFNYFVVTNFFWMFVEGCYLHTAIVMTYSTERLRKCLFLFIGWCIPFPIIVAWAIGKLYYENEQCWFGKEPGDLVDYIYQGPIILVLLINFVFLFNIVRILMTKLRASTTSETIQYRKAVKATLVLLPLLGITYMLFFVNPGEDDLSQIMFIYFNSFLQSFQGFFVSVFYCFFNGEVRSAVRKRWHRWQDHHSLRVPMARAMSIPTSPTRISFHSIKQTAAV
T2 sequence (P24387 whole entry): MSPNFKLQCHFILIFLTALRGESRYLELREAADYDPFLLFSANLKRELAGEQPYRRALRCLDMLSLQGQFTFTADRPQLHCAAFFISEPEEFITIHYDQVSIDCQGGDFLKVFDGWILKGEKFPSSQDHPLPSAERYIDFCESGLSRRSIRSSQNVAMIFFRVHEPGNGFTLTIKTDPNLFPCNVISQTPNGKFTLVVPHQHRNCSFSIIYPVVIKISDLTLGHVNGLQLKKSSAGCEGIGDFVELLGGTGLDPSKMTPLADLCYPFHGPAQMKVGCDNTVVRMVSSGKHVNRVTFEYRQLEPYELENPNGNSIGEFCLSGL
Kind of assay: Dose Response confirmation of uHTS hits for small molecule antagonists of the CRF-binding protein and CRF-R2 receptor complex. The note with it: read-out: IC50_Mean. The class given is functional.

For assay [6], the target named is T2, Corticotropin-releasing factor receptor 2/Corticotropin-releasing factor-binding protein. Put plainly: activators of CRF receptor 2 with binding protein – uHTS hits, confirmation (AID 602473). The note with it: read-out: EC50_Mean. The class given is functional.
The next assay addresses Cytochrome P450 2C19 (Homo sapiens, UniProt P33261). Put plainly: Cytochrome panel assay with activity outcomes. Panel member name: p450-cyp2c19 Compounds with AC50 equal or less than 10 uM are considered active. The class given is functional. The conditions noted are these: read-out: AC50.
The target of assay [7] is Luciferin 4-monooxygenase (Photinus pyralis, UniProt P08659). Kind of assay: inhibition of purified Photinus pyralis luciferase – biochemical, luminescence, dose response (AID 1891).
The next assay deals with Cytochrome P450 2D6 (Homo sapiens, UniProt P10635).
A further assay addresses Cytochrome P450 2C9 (Homo sapiens, UniProt P11712).

In ChEMBL document CHEMBL1201862, “PubChem BioAssay data set” (2004) one finds EC50, IC50 and AC50 data, which are given here for 40 molecules.

Structures are written as SMILES. Activity calls are given as the source filed them.

Chain of Cytochrome P450 2D6 (P10635 whole entry): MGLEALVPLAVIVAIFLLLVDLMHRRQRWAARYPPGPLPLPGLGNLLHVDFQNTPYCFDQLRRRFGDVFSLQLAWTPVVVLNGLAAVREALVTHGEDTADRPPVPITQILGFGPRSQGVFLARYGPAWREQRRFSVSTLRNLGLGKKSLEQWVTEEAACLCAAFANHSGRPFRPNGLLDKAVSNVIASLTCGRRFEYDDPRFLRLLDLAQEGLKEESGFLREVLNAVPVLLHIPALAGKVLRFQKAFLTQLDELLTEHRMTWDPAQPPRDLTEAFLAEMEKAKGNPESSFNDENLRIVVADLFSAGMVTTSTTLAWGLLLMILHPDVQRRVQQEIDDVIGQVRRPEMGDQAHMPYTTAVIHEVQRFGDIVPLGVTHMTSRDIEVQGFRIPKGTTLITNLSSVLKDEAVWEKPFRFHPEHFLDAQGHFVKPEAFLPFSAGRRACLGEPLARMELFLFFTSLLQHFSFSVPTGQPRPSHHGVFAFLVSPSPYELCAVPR
Chain of Luciferin 4-monooxygenase (P08659 whole entry): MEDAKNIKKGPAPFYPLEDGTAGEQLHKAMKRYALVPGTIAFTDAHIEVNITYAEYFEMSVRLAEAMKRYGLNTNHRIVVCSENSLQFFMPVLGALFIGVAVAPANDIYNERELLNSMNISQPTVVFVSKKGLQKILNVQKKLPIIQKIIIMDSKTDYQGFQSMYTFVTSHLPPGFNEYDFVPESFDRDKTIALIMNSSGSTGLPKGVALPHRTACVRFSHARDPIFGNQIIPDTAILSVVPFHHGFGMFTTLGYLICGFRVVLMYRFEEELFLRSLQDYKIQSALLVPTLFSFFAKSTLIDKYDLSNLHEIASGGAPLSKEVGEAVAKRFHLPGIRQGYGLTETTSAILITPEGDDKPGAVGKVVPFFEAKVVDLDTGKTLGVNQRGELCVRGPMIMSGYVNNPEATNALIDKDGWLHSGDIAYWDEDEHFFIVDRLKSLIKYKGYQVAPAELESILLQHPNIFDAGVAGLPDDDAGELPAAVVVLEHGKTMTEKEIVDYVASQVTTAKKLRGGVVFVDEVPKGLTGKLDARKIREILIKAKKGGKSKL
Chain of Cytochrome P450 2C9 (P11712 whole entry): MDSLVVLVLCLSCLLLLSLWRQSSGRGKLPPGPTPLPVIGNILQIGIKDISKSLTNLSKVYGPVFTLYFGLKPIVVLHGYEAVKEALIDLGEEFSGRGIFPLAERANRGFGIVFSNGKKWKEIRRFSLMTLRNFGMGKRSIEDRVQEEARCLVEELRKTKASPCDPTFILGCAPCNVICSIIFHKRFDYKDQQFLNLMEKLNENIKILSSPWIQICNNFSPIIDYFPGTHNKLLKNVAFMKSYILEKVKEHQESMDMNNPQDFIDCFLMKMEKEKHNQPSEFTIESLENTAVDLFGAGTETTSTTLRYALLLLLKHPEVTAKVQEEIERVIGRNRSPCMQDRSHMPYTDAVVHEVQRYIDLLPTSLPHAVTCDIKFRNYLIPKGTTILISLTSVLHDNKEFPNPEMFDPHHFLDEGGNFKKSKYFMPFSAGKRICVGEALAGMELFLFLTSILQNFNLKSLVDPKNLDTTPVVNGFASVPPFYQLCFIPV
Chain of Cytochrome P450 2C19 (P33261 whole entry): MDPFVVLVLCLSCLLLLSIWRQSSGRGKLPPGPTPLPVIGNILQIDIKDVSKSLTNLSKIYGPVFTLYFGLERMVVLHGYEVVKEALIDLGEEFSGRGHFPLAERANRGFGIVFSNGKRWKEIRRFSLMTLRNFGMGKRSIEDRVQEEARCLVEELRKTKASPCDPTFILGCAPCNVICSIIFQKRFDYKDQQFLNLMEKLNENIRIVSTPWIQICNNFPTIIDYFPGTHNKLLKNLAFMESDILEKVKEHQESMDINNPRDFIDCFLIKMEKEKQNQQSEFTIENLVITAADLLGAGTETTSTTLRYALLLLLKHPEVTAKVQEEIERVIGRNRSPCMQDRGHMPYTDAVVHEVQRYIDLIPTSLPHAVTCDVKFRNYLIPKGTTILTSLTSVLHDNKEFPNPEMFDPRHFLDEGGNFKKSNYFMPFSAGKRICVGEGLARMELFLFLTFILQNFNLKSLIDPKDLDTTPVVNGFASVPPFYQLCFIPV

Turning to `c1csc(-c2csc3nc(CN4CCOCC4)nc(NCc4ccc5c(c4)OCO5)c23)c1`, the EC50 is > 60 µM (not active) in assay [1]; 59.9 µM (active) on Streptokinase A; 12.3 µM (active) in assay [2]; 1.31 µM (active) in assay [3]; > 150 µM (not active) with Streptococcus.

As for `CCNC(=O)C1OC(n2cnc3c(N)ncnc32)C(O)C1O` (configuration not stated), the EC50 in [4] is < 0.088 µM (active).

Take `Cc1ccc(CNC(=O)CCNC(=O)Cn2ccc3ccccc3c2=O)cc1`: the IC50 in assay [5] is > 47.1 µM (inactive). In [6], the EC50 is > 53 µM (inactive).

With `CCN1C(=O)C(=O)N(Cc2ccc(OC)c(F)c2)C1=O`, the IC50 in assay [5] is > 47.1 µM (inactive). For the same molecule, the EC50 in [6] is > 53 µM (inactive).

Take `O=C(CCOc1ccccc1)Nc1ccc([N+](=O)[O-])cc1`: in assay [5], the IC50 was > 47.1 µM (inactive). Further, the EC50 in assay [6] was > 53 µM (inactive).

In general, AC50 refers to the concentration giving half of the maximal activity seen. Take `Cc1cc(C)c2c(SCc3ccc(Cl)cc3Cl)nc(N)nc2n1`: the half-maximal activity concentration (AC50) on Cytochrome P450 2C19 was 1 µM (inconclusive).

For `CC1C/C(=N\NC(=S)NCc2ccccc2)CC(C)(C)C1` (configuration not stated), the EC50 at Streptokinase A was > 150 µM (not active); in assay [2], 6.08 µM (active); in the assay on Streptococcus it was 10.4 µM (active).

Consider `CCOc1cc(CNCCN2CCOCC2)ccc1OCc1ccccc1Cl`, for which the EC50 in assay [1] was 21.1 µM (active); in assay [7] it was > 112 µM (not active); in [3], 0.125 µM (active); in assay [4] it was > 112 µM (not active).

`NC(=O)NC(=O)COC(=O)c1ccc2c(c1)C(=O)N(Cc1ccccc1)C2=O`: the EC50 in assay [7] and in assay [4] was > 112 µM (not active) in each case.

As to `Cc1ccc(SC(C)C(=O)Nc2ccccc2C(=O)N2CCOCC2)cc1` (configuration not stated), the EC50 in assay [7] and in [4] was > 112 µM (not active) throughout.

As to `CCCN(CC(=O)Nc1ccccc1OC)C(=O)c1ccncc1`, the EC50 (at Streptokinase A; in assay [2]; in the assay on Streptococcus) was > 150 µM (not active) in each case.

As for `O=C1CSC(c2cn(-c3ccccc3)nc2-c2ccc3c(c2)OCCO3)N1CCN1CCOCC1` (configuration not stated), the EC50 in assay [7] and in [4] was > 112 µM (not active) in each case.

Take `S=C(NCc1ccc(Cl)c(Cl)c1)Nc1ccc2c(c1)OCO2`: in [5], the IC50 is > 47.1 µM (inactive). Moreover, the EC50 in assay [6] is > 53 µM (inactive).

`Cc1c(C(=O)N2CCCC2)sc(NC(=O)c2ccc(Cl)cc2)c1C#N`: the EC50 in assay [7] and in assay [4] was > 112 µM (not active) in each case.

With `CCC(=O)Nc1nc2ccccc2n1Cc1ccccc1C`, the EC50 on Streptokinase A is > 150 µM (not active); in [2], 2.29 µM (active); in the assay with Streptococcus, > 150 µM (not active).

Regarding `COc1ccc(N2C(=O)c3cccc4cccc(c34)C2=O)cc1`, the EC50 in [6] is > 53 µM (inactive).

Take `O=C(c1ccncc1)N1CCC2(CCCN(c3ccc(-c4ccccc4)cc3)C2)CC1`: the AC50 on Cytochrome P450 2D6 is 12.6 µM (inconclusive).

With `O=C(NC(Cc1c[nH]c2ccccc12)C(=O)N/N=C/c1cccc2ccccc12)c1cccs1` (configuration not stated), the EC50 at Streptokinase A was > 150 µM (not active); in assay [2], 5.65 µM (active); in the assay on Streptococcus, 39.5 µM (active).

With `CC1=CC(C)(C)n2c(O)c(N=N)c3c(C)c(C)cc1c32`, the EC50 on Streptokinase A was 16.3 µM (active); in [2], 8.93 µM (active); with Streptococcus it was > 150 µM (not active).

As for `O=C(c1ccccc1Nc1ccc(SC(F)F)cc1)N1CCCCC1`, the AC50 was 2.82 µM (inconclusive) at Cytochrome P450 2C9 and 1.12 µM (inconclusive) on Cytochrome P450 2D6.

On to `COc1ccc(-c2ccc(CN3C(C)C(=O)N(Cc4cn(Cc5ccco5)nn4)CCS3(=O)=O)cc2)cc1` (configuration not stated), for which the IC50 in assay [5] is > 47.1 µM (inactive). In addition, the EC50 in assay [6] is > 53 µM (inactive).

For the molecule `O=C(O)c1ccc(N2CCCCS2(=O)=O)cc1`, the EC50 (on Streptokinase A; in assay [2]; in the assay on Streptococcus) was > 150 µM (not active) throughout.

As to `O=C(Nc1cc(Br)ccc1O)c1cc(-c2ccc3c(c2)OCO3)on1`, in [5], the IC50 was > 47.1 µM (inactive). For the same molecule, the EC50 in [6] was > 53 µM (inactive).

In the case of `CC1CCN(c2nc(N3CCCCC3)nc(N3CCCCC3)n2)CC1`, the EC50 is 33.2 µM (active) at Streptokinase A, 13.7 µM (active) in assay [2] and > 150 µM (not active) with Streptococcus.

For `Cn1cc(S(=O)(=O)N2CCc3ccccc32)cc1C(=O)Nc1ccc(Cl)cc1`, the EC50 in assay [7] and in [4] was > 112 µM (not active) throughout.

On to `CC(=O)N1CCC[C@@]2(CCN(c3ncccn3)C2)C1`, for which the AC50 on Cytochrome P450 2D6 is 15.8 µM (inconclusive).

Regarding `CCCCCCCCCOC(=O)C[n+]1csc(CCO)c1C`, in [5], the IC50 was > 47.1 µM (inactive). For the same molecule, in assay [6], the EC50 was > 53 µM (inactive).

As to `CC(C(=O)NCCN1CCOCC1)(c1ccccc1)c1ccccc1`, the IC50 in [5] was > 47.1 µM (inactive). For the same molecule, the EC50 in [6] was > 53 µM (inactive).

With `CSCCC(NC(=O)c1cccc(C)c1)C(=O)NNC(=O)c1cccs1` (configuration not stated), the IC50 in [5] was > 47.1 µM (inactive). Further, the EC50 in [6] is > 53 µM (inactive).

Take `C=CCc1cc(/C=C2\C(=N)N3N=C(CC(=O)N4CCOCC4)SC3=NC2=O)cc(OC)c1O`: in [6], the EC50 was 6.76 µM (active).

On to `COC1(C[S+]([O-])c2ccccc2)CCN(CCc2c[nH]c3ccc(F)cc23)CC1` (configuration not stated), for which the results for the AC50 on Cytochrome P450 2C9 and at Cytochrome P450 2D6 were 25.1 µM (inconclusive) and 15.8 µM (inconclusive), respectively.

With `NC(=O)c1ccc(C2SCC(=O)N2Cc2ccccc2)cc1` (configuration not stated), in [5], the IC50 is > 47.1 µM (inactive). For the same molecule, the EC50 in [6] was > 53 µM (inactive).

`Cc1ccc(C(=O)NC2CCCC2)s1`: the EC50 (at Streptokinase A; in assay [2]; in the assay on Streptococcus) was > 150 µM (not active) in each case.

`CCOCc1cc(CN2CCCC(CNC(=O)c3ccco3)C2)ccc1OC` (configuration not stated): in [5], the IC50 is > 47.1 µM (inactive). Besides, in assay [6], the EC50 was > 53 µM (inactive).

In the case of `Clc1cccc(Cl)c1C1Nc2cccc3cccc(c23)N1`, the EC50 at Streptokinase A was > 50 µM (not active); in assay [2], 5.07 µM (active); with Streptococcus it was 19.1 µM (active).

On to `OC[C@@H]1O[C@@H](n2cnc3c(N[C@H]4CCC[C@@H]4O)ncnc32)[C@H](O)[C@H]1O`, for which, on Cytochrome P450 2D6, the AC50 is 15.8 µM (inconclusive).

For `O=C(CN1C(=O)CCC1=O)Nc1nc(-c2cccs2)cs1`, the EC50 in assay [7] and in assay [4] was > 112 µM (not active) each time.

On to `COc1ccc2c(c1)/C(=C/c1cc(OC)c(OC)c(OC)c1)C(=O)N2`, for which the IC50 in [5] was > 47.1 µM (inactive). In addition, the EC50 in assay [6] was > 53 µM (inactive).

As to `CC(C)S(=O)(=O)c1csc(C(=O)Nc2ccc(F)cc2)c1N`, the EC50 in assay [7] was 2.33 µM (active); in [4], < 0.701 µM (active).

Consider `Cn1c(=O)oc2cc(S(=O)(=O)N3CCN(c4ccc(F)cc4)CC3)ccc21`, for which the EC50 in [7] and in assay [4] was > 112 µM (not active) throughout.
